Assay results reported in patent US10369145B2, “Coumarin derivatives and methods of use in treating hyperproliferative diseases” (DISCOVERYBIOMED, INC., priority 2013, dated 2019).

Columns and labels:
A549 = assay: NCI 60 panel: A549 (Non-Small Cell Lung Cancer); type: cell-based
Description: (§5) TGI means the drug concentration resulting in total growth inhibition or “cytostasis.” LC50 is the concentration of drug resulting in a 50% reduction in the measured cytosolic ATP at the end of the drug treatment as compared to that at the beginning, indicating a net loss of cells following treatment (cytotoxicity).

HOP-62 = assay: NCI 60 panel: HOP-62 (Non-Small Cell Lung Cancer); type: cell-based
Description: as §5

NCI-H23 = assay: NCI 60 panel: NCI-H23 (Non-Small Cell Lung Cancer); type: cell-based
Description: as §5

HCT-116 = assay: NCI 60 panel: HCT-116 (Colon Cancer); type: cell-based
Description: as §5

M14 = assay: NCI 60 panel: M14 (Melanoma); type: cell-based
Description: as §5

UACC-62 = assay: NCI 60 panel: UACC-62 (Melanoma); type: cell-based
Description: as §5

UO-31 = assay: NCI 60 panel: UO-31 (Renal Cancer); type: cell-based
Description: as §5

PC-3 = assay: NCI 60 panel: PC-3 (Prostate Cancer); type: cell-based
Description: as §5

U251MG = assay: Complementary DBM in vitro profiling: U251MG (CNS Cancer); type: cell-based
Description: (§1) The compounds described herein are effective for inhibiting cellular proliferation in hyperproliferative cell types. To study the effects of these compounds, an assay was developed to differentiate the effects of the compounds on proliferating versus confluent cells. The assay design generates a proliferating density 24 hours after seeding and provides a 3-day active cell growth/doubling window in which to gauge the anti-proliferative effect of the compounds described herein. […] In this 3-day growth window, cell number increases with daily doublings across the 72-hour period (see FIG. 1).
(§2) In each assay design, compounds were added at the 24-hour timepoint after cell seeding. The effect of the compounds, relative to vehicle control and to VelCade (a proteasome inhibitor approved in the U.S. for treating relapsed multiple myeloma and mantle cell lymphoma) as a positive control, was assessed across the 3-day growth window for proliferating cells and on an already near confluent culture of cells for the same time period. Normal cells were handled in the same manner, with some adjustment of seeding density needed in select cases. […]
(§3) Cell number at the end of the assay was determined using the CELLTITER-GLO Luminescent Cell Viability Assay (Promega; Madison, Wis.). The CELLTITER-GLO Luminescent Cell Viability Assay is a homogeneous method of determining the number of viable cells in culture based on quantitation of the ATP present, an indicator of metabolically active cells. IC50 values were calculated. […]
(§4) For a typical screening experiment to identify the compounds, cells were seeded into 96- or 384-well microtiter plates at plating densities pre-determined for each cell line to ensure drug exposure occurs during the proliferative phase well before confluency is reached. […] Values were calculated for each of these three parameters if the level of activity was reached; however, if the effect was not reached or was exceeded, the value for that parameter was expressed as greater or less than the maximum or minimum concentration tested.

ARH-77 = assay: Complementary DBM in vitro profiling: ARH-77 (Hematologic Cancer); type: cell-based
Description: as §1, §2, §3, §4

SK-OV-3 = assay: Complementary DBM in vitro profiling: SK-OV-3 (Ovarian Cancer); type: cell-based
Description: as §1, §2, §3, §4

myeloma cells = type: cell-based
Description: as §4, with “reached. After seeding, cells were incubated for 24 h prior to addition of experimental drugs. After 24 h, a test plate was assayed (CellTiterGlo—measurement of cytosolic ATP) to determine a baseline measurement of the cell population for each cell line at the time of drug addition. Experimental drugs were then added and cells were cultured for a 48 h drug exposure window.” for “reached.”

[1] = test system: U251MG glioblastoma cells; assay: Propidium iodide-based cell cycle analysis; conditions: 24 h
Description: Cell cycle analysis was performed on U251-MG cells to determine at what point in the cell cycle the compounds described herein were acting. U251MG glioblastoma cells were treated for 24 h with increasing concentrations of Compound DBM 228.
However, at higher nM doses, the cells appear to progress toward apoptosis and programmed cell death, given the higher % of cells in pre-G0/G1.

[2] = read-out: LC50 (the source's name)
[3] = myeloma cells, 48 h drug exposure

COc1ccccc1Nc1nc(-c2cc3cccc(N)c3oc2=O)cs1 [Compound DBM 228]
GI50 (A549): 0.097 µM
TGI (A549): 22.6 µM
CC50 (A549; [2]): > 100 µM
GI50 (HOP-62): 0.537 µM
TGI (HOP-62): 44.8 µM
CC50 (HOP-62; [2]): > 100 µM
GI50 (NCI-H23): 0.504 µM
TGI (NCI-H23): 15.8 µM
CC50 (NCI-H23; [2]): 63.1 µM
GI50 (HCT-116): 0.0795 µM
TGI (HCT-116): 10 µM
CC50 (HCT-116; [2]): > 100 µM
GI50 (M14): 0.0708 µM
CC50 (M14; [2]): 49.9 µM
GI50 (UACC-62): 0.0511 µM
LC50 (lethal concentration, 50% net cell kill) (UACC-62): > 100 µM
TGI (UACC-62): 28.2 µM
GI50 (UO-31): 1.46 µM
TGI (UO-31): 43 µM
CC50 (UO-31; [2]): > 100 µM
GI50 (PC-3): 0.27 µM
TGI (PC-3): 36 µM
CC50 (PC-3; [2]): > 100 µM
GI50 (U251MG): 0.197 µM
TGI (U251MG): >30 µM
CC50 (U251MG; [2]): > 30 µM
GI50 (ARH-77): 0.154 µM
TGI (ARH-77): 0.339 µM
CC50 (ARH-77; [2]): > 30 µM
GI50 (SK-OV-3): 0.845 µM
TGI (SK-OV-3): >30 µM
CC50 (SK-OV-3; [2]): > 30 µM
CC50 (myeloma cells): > 4 µM
GI50 (myeloma cells; [3]): 0.16 µM
TGI (myeloma cells; [3]): 0.271 µM
percentage of cells in G0/G1 ([1]; 40 nM): 52.2%
percentage of cells in G2/M ([1]; 40 nM): 30.2%
percentage of cells in Pre-G0/G1 ([1]; 40 nM): 3.2%
percentage of cells in S ([1]; 40 nM): 14.4%
percentage of cells in G0/G1 ([1]; 100 nM): 19.7%
percentage of cells in G2/M ([1]; 100 nM): 41.1%
percentage of cells in Pre-G0/G1 ([1]; 100 nM): 13.6%
percentage of cells in S ([1]; 100 nM): 25.6%
percentage of cells in G0/G1 ([1]; 400 nM): 1.8%
percentage of cells in G2/M ([1]; 400 nM): 49.3%
percentage of cells in Pre-G0/G1 ([1]; 400 nM): 43.1%
percentage of cells in S ([1]; 400 nM): 5.8%
cell cycle effect, in words ([1]; increasing concentrations): G2/M arrest
